Reference: patent US20100196475A1, “CONTROLLED RELEASE TABLET FORMULATION CONTAINING MAGNESIUM ALUMINOMETASILICATE” (priority 2007, published 2010)
In brackets after ≈: the same amount, converted by molar mass. Where a name gives a salt, the structure may show the parent alone.

Assay: physchem
Format: physicochemical
Details: for solubility: water
Method: Four different active agents with different solubilities were selected for the preparation of multi-layer tablets, as follows:
9410 (Prednisone)—solubility of 0.1 mg/ml in water.

| solubility described in words | solubility [mg/mL] | Compound |
| --- | --- | --- |
| freely soluble | 257 (≈ 707 mM) | CC(C)(Cc1c[nH]c2ccccc12)NCC(O)COc1ccccc1C#N (stereo not drawn) [compound 8110, Bucindolol] |
| Very soluble | 1200 | COc1ccc([C@@H]2Sc3ccccc3N(CCN(C)C)C(=O)[C@@H]2OC(C)=O)cc1 [compound 8403, Diltiazem HCl] |
| soluble | 0.1 (≈ 0.279 mM) | C[C@]12C=CC(=O)C=C1CC[C@@H]1[C@@H]2C(=O)C[C@@]2(C)[C@H]1CC[C@]2(O)C(=O)CO [compound 9410, Prednisone] |
